For series [1], the system named is Mus musculus. The series can be described thus: Toxicity in athymic nude Swiss mouse bearing human IGROV1 cells assessed as body weight loss at 40 mg/kg, po QD administered 5 days a week for 4 weeks. The format is organism-based, IGROV-1. Also noted: dose 40 mg/kg, route oral. The note with it: in vivo.
Another series deals with NB-4. The series can be described thus: Antiproliferative activity against human NB4 cells after 72 hrs. The format is functional, cell-based. As to conditions: NB-4, 72 h.
The next series has as its system NCI-H460. The series can be described thus: Antiproliferative activity against human H460 cells after 72 hrs. The format is functional, cell-based. As to conditions: NCI-H460, 72 h.
The test system of series [2] is HCT-116. The series can be described thus: Antiproliferative activity against human HCT116 cells after 72 hrs. As to conditions: HCT-116, 72 h. The format is functional, cell-based.
In series [3] the test system is IGROV-1. The series can be described thus: Antiproliferative activity against human IGROV1 cells after 72 hrs. As to conditions: IGROV-1, 72 h. The format is functional, cell-based.
Series [4] has as its system IGROV-1. Put plainly: Antiproliferative activity against cisplatin-resistant human IGROV1 cells after 72 hrs. The format is functional, cell-based. As to conditions: IGROV-1, 72 h.
The subject of series [5] is IGROV-1. Put plainly: Induction of apoptosis in human IGROV1 cells at IC80 after 72 hrs by TUNEL assay. The format is functional.
Series [6] relates to HCT-116. The series can be described thus: Antitumor activity against human HCT116 cells athymic nude Swiss mouse assessed as tumor volume inhibition at 40 mg/kg, po QD administered 5 days a week for 4 weeks. The format is functional.
In series [7] the test system is IGROV-1. Put plainly: Antitumor activity against human IGROV1 cells athymic nude Swiss mouse assessed as tumor volume inhibition at 20 mg/kg, po QD administered 5 days a week for 4 weeks. The format is functional.
Series [8] relates to IGROV-1. The series can be described thus: Antitumor activity against human IGROV1 cells athymic nude Swiss mouse assessed as tumor volume inhibition at 40 mg/kg, po QD administered 5 days a week for 4 weeks. The format is functional.
In series [9] the test system is Mus musculus. The series can be described thus: Toxicity in athymic nude Swiss mouse bearing human HCT116 cells assessed as body weight loss at 40 mg/kg, po QD administered 5 days a week for 4 weeks. The format is organism-based, HCT-116. Also noted: dose 40 mg/kg, route oral. As to conditions: in vivo.
The subject of series [10] is Mus musculus. Put plainly: Toxicity in athymic nude Swiss mouse bearing human IGROV1 cells assessed as body weight loss at 20 mg/kg, po QD administered 5 days a week for 4 weeks. The format is organism-based, IGROV-1. The arrangement: dose 20 mg/kg, route oral. The note with it: in vivo.
Series [11] relates to IGROV-1. The series can be described thus: Antiproliferative activity against human IGROV1 cells after 72 hrs by cell counting. As to conditions: IGROV-1, 72 h.

Structures are written as SMILES.

In general, IC50 refers to the point on the concentration scale where inhibition reaches its midpoint. A high value points to weaker potency in that assay. For orientation: inhibition in vivo means the percentage by which the read-out fell short of the control. For orientation: IC80 means the point of the concentration-response curve where the effect stands at 80%. Read a high IC80 as weaker potency. Consider `O=C(/C=C/c1ccc(-c2ccc(O)cc2)cc1)NO`, for which the Activity in the series with Mus musculus [1] is reported as 6%; in the series on IGROV-1 [5] it was 40%; in the series with Mus musculus [9], 8%; in the series with Mus musculus [10] it was 2%. Moreover, the IC50 with NB-4 was determined as 2.3 µM; in the series on NCI-H460 it was 6 µM; in the series with HCT-116 [2], 0.33 µM; with IGROV-1 [3] it was 7.6 µM; in the series on IGROV-1 [4] it was 6.5 µM. Also, the inhibition in vivo at 40 mg/kg in the series with HCT-116 [6] turned out to be 65%; in the series on IGROV-1 [8], 49%. In addition, the inhibition in vivo at 20 mg/kg in the series with IGROV-1 [7] worked out at 44%. For the same compound, the IC80 in the series on IGROV-1 [11] was found to be 20 µM.
